Laboratory results taken from US20250326743A1, “CRYSTAL FORMS OF TRIAZINE DIONE DERIVATIVE AND PREPARATION METHOD THEREFOR” (Jiangsu Hengrui Pharmaceuticals Co., Ltd., priority 2022, published 2025).

Experiments:
[1] = Toxicokinetic evaluation of 14 days of repeated intragastric administration to SD rats; format: in vivo
Experimental: SD rats were used as the test animals. After intragastric administration of the test compounds to the SD rats, the concentrations of the original forms of the compounds in the plasma and the administration solutions were measured by the LC/MS/MS method at different time points.
Twenty-four SD rats, with an equal number of males and females, were evenly divided into 6 groups, each consisting of 4 rats with an equal number of males and females. The rats were provided by Vital River Laboratory Animal Technology Co., Ltd.
A certain amount of compound MYK-461 was weighed out, and 0.5% MC was added to prepare a colorless clear solution.
Compound MYK-461 was administered at doses of 0.5 mg/kg, 1.5 mg/kg, and 3 mg/kg, each with a volume of 10 mL/kg.
0.2-mL blood samples were collected from the orbit at 0.5 h, 1.0 h, 2.0 h, 4.0 h, 8.0 h, and 24.0 h after administration on day 1, and 0.2-mL blood samples were collected from the orbit before administration and at 0.5 h, 1.0 h, 2.0 h, 4.0 h, 8.0 h, and 24.0 h after administration on day 7 and day 14. The blood samples were placed into EDTA-K2 anticoagulation tubes and centrifuged at 10,000 rpm for 1 min (4° C.), and the plasma was isolated within 1 h and stored at −20° C. before analysis. The procedure starting from the blood collection to the centrifugation was performed under ice-bath conditions. Two hours after administration, food was provided. […]

[2] = DVS (dynamic vapor sorption) hygroscopicity; format: physicochemical; conditions: for hygroscopic weight gain: DVS
Experimental: DVS refers to dynamic vapor sorption: The measurement was performed using SMS DVS Advantage; at 25° C., the humidity was changed as follows: 50%-95%-0%-95%-50%, in steps of 10% (5% for the last step) (specific humidity ranges are shown in corresponding patterns, and those listed here were used in most cases); the criterion was dm/dt being not greater than 0.002%.

[3] = Long-term/accelerated stability study (6 months); format: physicochemical; conditions: for physical and chemical stability (conclusion): 25° C. with 60% RH and 40° C. with 75% RH
[4] = Influencing factor stability study (30 days, open flasks); format: physicochemical; conditions: for physical and chemical stability (conclusion): light exposure, 40° C. and 60° C., 75% RH and 92.5% RH
[5] = normal storage conditions, 60% RH
[6] = Light exposure (4500 Lux), 5 days
[7] = Light exposure (4500 Lux), 10 days
[8] = Light exposure (4500 Lux), 30 days

CC(C)n1c(=O)cc(N[C@@H](C)c2ccccc2)[nH]c1=O [MYK-461, reference compound]
accumulation in the SD rats [1]: caused significant accumulation

Cc1ccc(F)c([C@H](C)Nc2nc(=O)n(C3CCOCC3)c(=O)[nH]2)c1 [crystal form A, (S)-6-((1-(2-fluoro-5-methylphenyl)ethyl)amino)-3-(tetrahydro-2H-pyran-4-yl)-1,3,5-triazine-2,4(1H,3H)-dione]
hygroscopic weight gain ([2]; accelerated conditions, 70% RH): about 0.15%
hygroscopic weight gain ([2]; extreme conditions, 90% RH): about 0.24%
hygroscopic weight gain [2, 5]: about 0.12%
crystal form after DVS testing [2]: did not change
physical and chemical stability (conclusion) ([3]; 6 months): both good physical stability and good chemical stability
Crystal form ([3]; 25° C./60% RH, 1 month): No change
Purity % ([3]; 25° C./60% RH, 1 month): 99.7%
Crystal form ([3]; 25° C./60% RH, 2 months): No change
Purity % ([3]; 25° C./60% RH, 2 months): 99.7%
Crystal form ([3]; 25° C./60% RH, 3 months): No change
Purity % ([3]; 25° C./60% RH, 3 months): 99.7%
Crystal form ([3]; 25° C./60% RH, 6 months): No change
Purity % ([3]; 25° C./60% RH, 6 months): 99.7%
Crystal form ([3]; 40° C./75% RH, 1 month): No change
Purity % ([3]; 40° C./75% RH, 1 month): 99.7%
Crystal form ([3]; 40° C./75% RH, 2 months): No change
Purity % ([3]; 40° C./75% RH, 2 months): 99.7%
Crystal form ([3]; 40° C./75% RH, 3 months): No change
Purity % ([3]; 40° C./75% RH, 3 months): 99.7%
Crystal form ([3]; 40° C./75% RH, 6 months): No change
Purity % ([3]; 40° C./75% RH, 6 months): 99.8%
Purity % ([3]; Initial): 99.7%
Color and state ([4]; 40° C., 5 days): Off-white solid
Crystal form ([4]; 40° C., 5 days): No change
Purity % ([4]; 40° C., 5 days): 99.7%
Color and state ([4]; 40° C., 10 days): Off-white solid
Crystal form ([4]; 40° C., 10 days): No change
Purity % ([4]; 40° C., 10 days): 99.7%
Color and state ([4]; 40° C., 30 days): Off-white solid
Crystal form ([4]; 40° C., 30 days): No change
Purity % ([4]; 40° C., 30 days): 99.7%
Color and state ([4]; 60° C., 5 days): Off-white solid
Crystal form ([4]; 60° C., 5 days): No change
Purity % ([4]; 60° C., 5 days): 99.7%
Color and state ([4]; 60° C., 10 days): Off-white solid
Crystal form ([4]; 60° C., 10 days): No change
Purity % ([4]; 60° C., 10 days): 99.7%
Color and state ([4]; 60° C., 30 days): Off-white solid
Crystal form ([4]; 60° C., 30 days): No change
Purity % ([4]; 60° C., 30 days): 99.7%
Color and state ([4]; 75% RH, 5 days): Off-white solid
Crystal form ([4]; 75% RH, 5 days): No change
Purity % ([4]; 75% RH, 5 days): 99.7%
Color and state ([4]; 75% RH, 10 days): Off-white solid
Crystal form ([4]; 75% RH, 10 days): No change
Purity % ([4]; 75% RH, 10 days): 99.7%
Color and state ([4]; 75% RH, 30 days): Off-white solid
Crystal form ([4]; 75% RH, 30 days): No change
Purity % ([4]; 75% RH, 30 days): 99.7%
Color and state ([4]; 92.5% RH, 5 days): Off-white solid
Crystal form ([4]; 92.5% RH, 5 days): No change
Purity % ([4]; 92.5% RH, 5 days): 99.7%
Color and state ([4]; 92.5% RH, 10 days): Off-white solid
Crystal form ([4]; 92.5% RH, 10 days): No change
Purity % ([4]; 92.5% RH, 10 days): 99.7%
Color and state ([4]; 92.5% RH, 30 days): Off-white solid
Crystal form ([4]; 92.5% RH, 30 days): No change
Purity % ([4]; 92.5% RH, 30 days): 99.7%
Color and state ([4]; Initial, 0 days): Off-white solid
Purity % ([4]; Initial, 0 days): 99.7%
Color and state [4, 6]: Off-white solid
Crystal form [4, 6]: No change
Purity % [4, 6]: 99.7%
Color and state [4, 7]: Off-white solid
Crystal form [4, 7]: No change
Purity % [4, 7]: 99.7%
Color and state [4, 8]: Off-white solid
Crystal form [4, 8]: No change
Purity % [4, 8]: 99.7%
physical and chemical stability (conclusion) ([4]; 30 days): both good physical stability and good chemical stability

Cc1ccc(F)c([C@H](C)Nc2nc(=O)n(C3CCOCC3)c(=O)[nH]2)c1 [crystal form B, (S)-6-((1-(2-fluoro-5-methylphenyl)ethyl)amino)-3-(tetrahydro-2H-pyran-4-yl)-1,3,5-triazine-2,4(1H,3H)-dione]
hygroscopic weight gain ([2]; accelerated conditions, 70% RH): about 0.298%
hygroscopic weight gain ([2]; extreme conditions, 90% RH): about 0.418%
hygroscopic weight gain [2, 5]: about 0.242%
crystal form after DVS testing [2]: did not change
physical and chemical stability (conclusion) ([3]; 6 months): both good physical stability and good chemical stability
Crystal form ([3]; 25° C./60% RH, 1 month): No change
Purity % ([3]; 25° C./60% RH, 1 month): 99.8%
Crystal form ([3]; 25° C./60% RH, 2 months): No change
Purity % ([3]; 25° C./60% RH, 2 months): 99.8%
Crystal form ([3]; 25° C./60% RH, 3 months): No change
Purity % ([3]; 25° C./60% RH, 3 months): 99.9%
Crystal form ([3]; 25° C./60% RH, 6 months): No change
Purity % ([3]; 25° C./60% RH, 6 months): 99.9%
Crystal form ([3]; 40° C./75% RH, 1 month): No change
Purity % ([3]; 40° C./75% RH, 1 month): 99.9%
Crystal form ([3]; 40° C./75% RH, 2 months): No change
Purity % ([3]; 40° C./75% RH, 2 months): 99.9%
Crystal form ([3]; 40° C./75% RH, 3 months): No change
Purity % ([3]; 40° C./75% RH, 3 months): 99.9%
Crystal form ([3]; 40° C./75% RH, 6 months): No change
Purity % ([3]; 40° C./75% RH, 6 months): 99.9%
Purity % ([3]; Initial): 99.9%
Color and state ([4]; 40° C., 5 days): Off-white solid
Crystal form ([4]; 40° C., 5 days): No change
Purity % ([4]; 40° C., 5 days): 99.8%
Color and state ([4]; 40° C., 10 days): Off-white solid
Crystal form ([4]; 40° C., 10 days): No change
Purity % ([4]; 40° C., 10 days): 99.9%
Color and state ([4]; 40° C., 30 days): Off-white solid
Crystal form ([4]; 40° C., 30 days): No change
Purity % ([4]; 40° C., 30 days): 99.9%
Color and state ([4]; 60° C., 5 days): Off-white solid
Crystal form ([4]; 60° C., 5 days): No change
Purity % ([4]; 60° C., 5 days): 99.9%
Color and state ([4]; 60° C., 10 days): Off-white solid
Crystal form ([4]; 60° C., 10 days): No change
Purity % ([4]; 60° C., 10 days): 99.9%
Color and state ([4]; 60° C., 30 days): Off-white solid
Crystal form ([4]; 60° C., 30 days): No change
Purity % ([4]; 60° C., 30 days): 99.9%
Color and state ([4]; 75% RH, 5 days): Off-white solid
Crystal form ([4]; 75% RH, 5 days): No change
Purity % ([4]; 75% RH, 5 days): 99.8%
Color and state ([4]; 75% RH, 10 days): Off-white solid
Crystal form ([4]; 75% RH, 10 days): No change
Purity % ([4]; 75% RH, 10 days): 99.8%
Color and state ([4]; 75% RH, 30 days): Off-white solid
Crystal form ([4]; 75% RH, 30 days): No change
Purity % ([4]; 75% RH, 30 days): 99.8%
Color and state ([4]; 92.5% RH, 5 days): Off-white solid
Crystal form ([4]; 92.5% RH, 5 days): No change
Purity % ([4]; 92.5% RH, 5 days): 99.9%
Color and state ([4]; 92.5% RH, 10 days): Off-white solid
Crystal form ([4]; 92.5% RH, 10 days): No change
Purity % ([4]; 92.5% RH, 10 days): 99.9%
Color and state ([4]; 92.5% RH, 30 days): Off-white solid
Crystal form ([4]; 92.5% RH, 30 days): No change
Purity % ([4]; 92.5% RH, 30 days): 99.9%
Color and state ([4]; Initial, 0 days): Off-white solid
Purity % ([4]; Initial, 0 days): 99.9%
Color and state [4, 6]: Off-white solid
Crystal form [4, 6]: No change
Purity % [4, 6]: 99.9%
Color and state [4, 7]: Off-white solid
Crystal form [4, 7]: No change
Purity % [4, 7]: 99.9%
Color and state [4, 8]: Off-white solid
Crystal form [4, 8]: No change
Purity % [4, 8]: 99.9%
physical and chemical stability (conclusion) ([4]; 30 days): both good physical stability and good chemical stability
